The test system of series [1] is T. cruzi epimastigotes (Tulahuen 2 strain). The experiment in a line: In vitro activity on T. cruzi epimastigotes. Conditions: Trypanosoma cruzi, 120 h, read-out: PGI25μM (%) (epimastigote): percentage of growth inhibition of T. cruzi epimastigote cells. The format is cell-based.
Another series concerns T. cruzi. Conditions: cited from earlier work.

One may read the inhibition as the drop in the measured response relative to a control, in per cent.

For the compound `O=P(O)(O)C(O)(Cc1cccnc1)P(=O)(O)O` [NaRis, (1-hydroxy-1-phosphono-2-pyridin-3-yl-ethyl)phosphonate], the inhibition at 25 µM in series [1] is 19%. In the series on T. cruzi, the “Parasitemia in infected mice” value is listed as “significantly reduces the parasitemia” and the “Toxicity in infected mice” value is reported as “no toxicity”. The Animal survival entry in the series on T. cruzi (infected mice) was “increases the animal survival”.
